The record followed here is PMC6521598, “Identification of GLPG/ABBV-2737, a Novel Class of Corrector, Which Exerts Functional Synergy With Other CFTR Modulators” (Frontiers in Pharmacology, 2019).

The target in one assay is T1, E92K CFTR (Homo sapiens, UniProt P13569, E92K).
T1 construct: expressed in transfected cells; host or cells: HEK293
In words: YFP halide assay (YHA), HEK293, E92K. In kind it is cell-based. To be noted: for rescue of E92K: YFP halide assay. On the procedure:
HEK293 cells were transfected with 10–80 ng of plasmid encoding F508del, E92K, P67L, V232D, F508del/G550E, F508del/I539T or wild type CFTR and 20 ng of plasmid encoding YFP (H148Q/I152L/F47L) using jetPEI (Polyplus transfection). Directly after transfection, cells were seeded in black 96-well plates coated with poly-D-lysine at a density of 70,000 cells per well. The next day, cells were treated with corrector(s) for 24 h. After this incubation period, cells were washed twice with DPBS with Ca^2+ and Mg^2+. Subsequently, cells were treated with 10 μM forskolin and the desired concentration of potentiator in a volume of 40 μl and incubated at room temperature for 10 min, a time point optimized in previous experiments resulting in a good window (positive control/negative control > 2) and signal to background ratio. YFP fluorescence was measured using an EnVision plate reader (PerkinElmer). […] The excitation wavelength was 485 nm and the emission wavelength 530 nm. The capacity of potentiators to increase CFTR channel function was expressed as 1-(fluorescence 7 s after NaI addition (F)/fluorescence before NaI addition (F0)). For the different mutants, data was normalized using the formula: normalized response = 100^∗(absolute response – negative control response)/(GLPG2222 response – negative response) as such, GLPG2222 response corresponds to 100. Concentration–response experiments were fitted using a 4 parameter hill function of the form Response = Bottom + (Top - Bottom)/(1 + (EC50/concentration) ˆHillSlope)) to determine EC50 values.
FIGURE 7 YHA assay using CFTR mutant overexpression in HEK293 cells. Cells were incubated for 24 h with either a dose range of GLPG2737, GLPG2222 or VX809. After washing, cells were triggered with forskolin (50 μM for F508del, E92K, V232D and F508del/I539T, 10 μM for P67L or 1 μM for F508del/G550E) and 0.5 μM potentiator and YFP fluorescence was measured. Efficacy was determined using 10 μM GLPG2222 as positive control and DMSO as negative control in the assay. (A) Table with potency and efficacy obtained for the mutants and compounds tested. (B) Dose–response curves of GLPG2737. (C) Dose–response curves of GLPG2222. (D) Dose–response curves of VX-809. For panels (B–D), E92K mutant is represented in black, F508del mutant in blue, F508del/I539T mutant in green and V232D mutant in gray, all concentrations are tested in duplicate. […] All values containing these digits are best readings, e.g. GLPG2222 P67L EC50 206 (± 98), GLPG2222 E92K EC50 503 (± 109), VX809 F508del EC50 286 (± 35), VX809 P67L % of reference 88 (± 3), GLPG2737 F508del % of reference 138 (± 9). / GLPG2737, EC50 for P67L and E92K is printed as NA; left out because no value is given. / VX809, E92K EC50 error: 17, a digit may be missing.

For the next assay, the target named is F508del CFTR (Homo sapiens, UniProt P13569, DEL508-508). In words: Patch-clamp single-channel recording, inside-out patches of CHO cells. Type of assay: cell-based, hamster. The procedure:
A more complete description of the patch-clamp methodology can be found in a recent publication ([Lin et al., 2016]). Briefly, CHO (Chinese Hamster Ovary) cells were transiently transfected with pcDNA plasmids containing a F508del CFTR construct and pEGFP-C3. After transfection, cells were trypsinized and plated onto 35 mm tissue culture dishes dispersed with sterilized glass chips. Electrophysiological experiments were performed 3–7 days following transfection.
Patch-clamp experiments were performed at room temperature with an EPC-9 patch clamp amplifier (HEKA Instruments, Holliston, MA, United States). Recording microelectrodes were made from borosilicate capillary glass with a two-stage pipette puller (Narishige, Tokyo, Japan). The pipette tip was polished with a home-made microforge before use. The pipette solution contained (in mM) 140 NMDG (N-methyl-D-glucamine)-Cl (Fisher Biotec), 2 MgCl2 (Fisher Biotec, Perth, WA, Australia), 5 CaCl2 (Fisher Biotec), and 10 HEPES (Fisher Biotec), pH 7.4, with NMDG (see [Lin et al., 2016] for details). The pipette resistance when filled with the regular pipette solution was 3–5 MΩ. Once the tip of the pipette and the cell membrane established GΩ resistance, the electrode was quickly pulled away from the cell to form an inside-out patch, where the cytosolic side of the membrane was exposed to the perfusion solution. Cells were perfused with a bath solution having (in mM) 145 NaCl (Fisher Biotec), 5 KCl (Fisher Biotec), 2 MgCl2, 1 CaCl2, 5 glucose (Fisher Biotec), 5 HEPES, and 20 sucrose (Fisher Biotec), pH 7.4, with NaOH (Fisher Biotec). After establishing an inside-out configuration, the patch was perfused with a standard perfusion solution (i.e., intracellular solution) containing (in mM) 150 NMDG-Cl, 2 MgCl2, 10 EGTA (Fisher Biotec), and 8 Tris (Fisher Biotec), pH 7.4, with NMDG (see [Lin et al., 2016] for details) containing the catalytic subunit of protein kinase A (PKA) and 2 mM ATP. Once the phosphorylation-dependent activation of CFTR reached a plateau, 10 μM GLPG3067 was applied in the continuous presence of 2 mM ATP until a steady state was attained.
Microscopic kinetic analysis was performed with a program provided by Dr. László Csanády (Semmelweis University, Budapest, Hungary) ([Csanády, 2000]). Experiments were performed four to five times and averages and SEM were calculated. The resulting Open probability (Po) values and single-channel kinetic parameters were compared with paired t-test (Excel, Microsoft); P < 0.05 is considered statistically significant.
(In general: In patch-clamp work, channel activity is measured electrically.)

[1] abbreviates: cells treated 24 h with 0.5 μM GLPG2222 only, n = 3.
Where [2] appears, read: acute addition of 1 μM GLPG2737 on top of 0.5 μM GLPG2222 + 10 μM GLPG3067.
The mark [3] stands for this setting: cells pre-treated 24 h with 0.5 μM GLPG2222 + 1 μM GLPG2737 + 10 μM GLPG3067, compounds in recording solution.
The mark [4] stands for this setting: same pre-treatment, after washout of GLPG2737 (GLPG2222 + GLPG3067 present).

T1 sequence (P13569 whole entry E92K): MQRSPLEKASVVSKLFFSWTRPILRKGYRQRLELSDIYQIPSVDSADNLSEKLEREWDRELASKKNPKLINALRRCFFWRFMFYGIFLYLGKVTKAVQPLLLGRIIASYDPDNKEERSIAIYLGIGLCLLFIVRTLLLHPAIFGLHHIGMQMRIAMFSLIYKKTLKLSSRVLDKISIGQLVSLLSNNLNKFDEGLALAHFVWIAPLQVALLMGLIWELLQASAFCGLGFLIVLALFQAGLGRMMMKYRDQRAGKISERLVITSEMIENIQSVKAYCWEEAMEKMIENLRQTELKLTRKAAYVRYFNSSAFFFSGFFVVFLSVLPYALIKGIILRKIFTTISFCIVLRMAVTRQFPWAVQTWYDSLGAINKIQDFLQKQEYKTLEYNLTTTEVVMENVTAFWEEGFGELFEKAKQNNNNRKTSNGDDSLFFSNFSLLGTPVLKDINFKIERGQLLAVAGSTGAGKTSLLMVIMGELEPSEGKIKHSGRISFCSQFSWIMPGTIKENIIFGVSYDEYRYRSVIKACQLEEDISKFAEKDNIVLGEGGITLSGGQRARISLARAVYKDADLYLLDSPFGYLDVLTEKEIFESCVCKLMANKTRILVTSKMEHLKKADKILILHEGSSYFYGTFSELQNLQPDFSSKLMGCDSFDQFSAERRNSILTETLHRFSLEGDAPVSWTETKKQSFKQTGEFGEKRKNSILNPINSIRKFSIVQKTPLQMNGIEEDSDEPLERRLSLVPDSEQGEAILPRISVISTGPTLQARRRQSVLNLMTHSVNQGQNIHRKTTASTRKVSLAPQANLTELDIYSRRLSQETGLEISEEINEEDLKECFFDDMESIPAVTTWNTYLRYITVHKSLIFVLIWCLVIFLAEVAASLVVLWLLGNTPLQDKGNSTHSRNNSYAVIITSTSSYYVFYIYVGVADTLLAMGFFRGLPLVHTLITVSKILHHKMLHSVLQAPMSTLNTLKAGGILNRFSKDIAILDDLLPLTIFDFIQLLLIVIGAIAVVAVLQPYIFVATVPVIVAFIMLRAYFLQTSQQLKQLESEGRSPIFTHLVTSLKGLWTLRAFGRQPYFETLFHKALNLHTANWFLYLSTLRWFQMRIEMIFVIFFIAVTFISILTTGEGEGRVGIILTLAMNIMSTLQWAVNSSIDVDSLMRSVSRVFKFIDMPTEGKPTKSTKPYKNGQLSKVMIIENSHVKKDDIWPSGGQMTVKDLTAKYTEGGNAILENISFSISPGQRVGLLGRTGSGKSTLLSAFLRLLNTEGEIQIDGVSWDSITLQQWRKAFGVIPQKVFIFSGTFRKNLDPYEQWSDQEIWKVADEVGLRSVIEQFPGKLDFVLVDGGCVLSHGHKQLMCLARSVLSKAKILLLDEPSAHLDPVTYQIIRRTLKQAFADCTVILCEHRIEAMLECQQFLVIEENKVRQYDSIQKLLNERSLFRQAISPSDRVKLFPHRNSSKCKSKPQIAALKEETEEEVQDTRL
Sequence of F508del CFTR (P13569 with tags, fused parts or gaps DEL508-508): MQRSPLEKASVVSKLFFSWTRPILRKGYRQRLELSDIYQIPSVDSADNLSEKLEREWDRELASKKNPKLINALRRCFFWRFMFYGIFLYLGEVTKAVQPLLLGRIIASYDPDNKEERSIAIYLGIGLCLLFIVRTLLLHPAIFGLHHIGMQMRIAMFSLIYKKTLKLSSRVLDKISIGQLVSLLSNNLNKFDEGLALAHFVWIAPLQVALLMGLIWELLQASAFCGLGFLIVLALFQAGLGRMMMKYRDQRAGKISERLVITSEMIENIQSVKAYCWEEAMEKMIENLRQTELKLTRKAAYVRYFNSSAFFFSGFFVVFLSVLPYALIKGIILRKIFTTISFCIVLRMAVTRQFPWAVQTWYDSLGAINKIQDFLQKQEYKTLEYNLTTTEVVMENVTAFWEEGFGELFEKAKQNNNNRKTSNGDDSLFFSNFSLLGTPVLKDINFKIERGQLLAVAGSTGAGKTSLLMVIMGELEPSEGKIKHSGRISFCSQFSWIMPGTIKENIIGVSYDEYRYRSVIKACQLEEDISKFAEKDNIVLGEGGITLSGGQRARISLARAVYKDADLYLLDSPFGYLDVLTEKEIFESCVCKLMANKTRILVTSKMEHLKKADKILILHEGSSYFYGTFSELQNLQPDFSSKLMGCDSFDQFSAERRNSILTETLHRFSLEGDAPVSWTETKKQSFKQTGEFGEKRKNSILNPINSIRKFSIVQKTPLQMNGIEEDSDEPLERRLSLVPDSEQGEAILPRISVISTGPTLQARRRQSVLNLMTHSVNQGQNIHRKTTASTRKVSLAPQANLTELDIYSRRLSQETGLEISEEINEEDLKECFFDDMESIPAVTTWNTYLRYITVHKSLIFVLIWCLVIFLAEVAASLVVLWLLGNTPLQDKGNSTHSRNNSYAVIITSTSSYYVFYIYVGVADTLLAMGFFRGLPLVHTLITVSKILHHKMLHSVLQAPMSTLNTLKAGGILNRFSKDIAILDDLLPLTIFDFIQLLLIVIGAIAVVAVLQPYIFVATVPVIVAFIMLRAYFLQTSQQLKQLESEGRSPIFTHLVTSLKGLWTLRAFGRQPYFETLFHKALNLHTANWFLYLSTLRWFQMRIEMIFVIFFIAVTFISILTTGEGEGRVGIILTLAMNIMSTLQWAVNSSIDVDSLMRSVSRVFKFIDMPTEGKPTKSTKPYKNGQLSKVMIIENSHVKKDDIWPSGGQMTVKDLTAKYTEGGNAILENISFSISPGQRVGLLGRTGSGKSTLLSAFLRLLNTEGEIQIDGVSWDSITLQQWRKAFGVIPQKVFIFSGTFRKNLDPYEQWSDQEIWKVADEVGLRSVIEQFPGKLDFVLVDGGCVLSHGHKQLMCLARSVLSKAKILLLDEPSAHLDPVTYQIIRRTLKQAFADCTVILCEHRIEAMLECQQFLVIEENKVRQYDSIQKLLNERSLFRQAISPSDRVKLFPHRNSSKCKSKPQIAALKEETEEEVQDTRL

For the molecule `O=C(O)c1ccc([C@H]2C[C@@H](NC(=O)C3(c4ccc5c(c4)OC(F)(F)O5)CC3)c3ccc(OC(F)F)cc3O2)cc1` [GLPG2222, 4-[(2 R,4 R)-4-({[1-(2,2-Difluoro-1,3-benzodioxol-5-yl)cyclopropyl]carbonyl}amino)-7-(difluoromethoxy)-3,4-dihydro-2 H -chromen-2-yl]benzoic Acid], the concentration for a half-maximal effect (EC50) at E92K CFTR (24 h, 50 μM forskolin + 0.5 μM potentiator) amounted to 503 nM. For the same molecule, the “rescue of E92K” value on E92K CFTR is reported as “could be rescued”. Further, at F508del CFTR (setting [1]), the Po is on record as 0.04 ± 0.01, the τc was determined as 6.88 ± 3.36 s and the τo is given as 0.25 ± 0.08 s.
For `COC1CCN(C2CCN(c3cc(C(=O)NS(=O)(=O)N(C)C)nc4c3c(C3CCC3)nn4-c3ccc(F)cc3)CC2)CC1` [GLPG2737], the “rescue of E92K” value on E92K CFTR was “absence of rescue”. Besides, at F508del CFTR (setting [2]), the Po turned out to be 0.15 ± 0.01, the τc was 6.42 ± 1.24 s and the τo worked out at 1.37 ± 0.33 s. Besides, on F508del CFTR (setting [3]), the “apparent Po” value is listed as 0.21 ± 0.003, the τc was 10.35 ± 2.22 s and the τo is recorded as 2.68 ± 0.59 s. On F508del CFTR (setting [4]), the Po is 0.63 ± 0.05, the τc was 1.89 ± 0.38 s and the τo turned out to be 3.28 ± 0.09 s.

In general, EC50 refers to the concentration needed to bring the measured effect to its halfway point.
